pIC50: −log10 of the molar value. Read-outs that look alike come from different tables or passages of the source. A value given as a limit tells only on which side of the number the result lay.

As a reminder, the IC50 is the concentration needed to halve the response being measured. For orientation: pIC50 means the IC50 on a negative log10 scale, so that one unit is a factor of ten.

One assay has as its system C2C12 muscle cells. Nature of the assay: Glucose utilization in C2C12 muscle cells. The assay is classed as cell-based. To be noted: 250 µg/mL, 1 h, percentage of untreated control cells ± SEM. The method, then: (§1) The potential of compounds to stimulate cells to utilize glucose was estimated using the method adopted by Olaokun et al.. […] The C2C12 cells were incubated for 4 days, while the H-4-11-E cells were incubated for 2 days at 37 °C in a 5% CO2 incubator. Thereafter, the cells were examined and utilized for the glucose uptake assay. […] The treated cells were incubated for 1 h (C2C12) and 3 h (H-4-11-E). The positive control was insulin (Sigma) (1 μM) for C2C12 cells and metformin (Sigma) (1 µM) for H-4-11-E cells. Thereafter, the amount of glucose in the medium was evaluated using the glucose oxidase method, with absorbance recorded at 540 nm. The percentage of glucose utilized was calculated as the percentage change in absorbance in comparison to the untreated cells using Equation (2). (2) %Glucose utilized=100×∆AControl (untreated cells)−∆ASample (treated cells)/∆AControl (untreated cells)

The target in assay [1] is T1, rat intestinal α-glucosidase (Rattus norvegicus, UniProt P23739).
T1 construct: rat intestinal α-glucosidase solution; from tissue; host or cells: rat intestine
T1 sequence (P23739 whole entry): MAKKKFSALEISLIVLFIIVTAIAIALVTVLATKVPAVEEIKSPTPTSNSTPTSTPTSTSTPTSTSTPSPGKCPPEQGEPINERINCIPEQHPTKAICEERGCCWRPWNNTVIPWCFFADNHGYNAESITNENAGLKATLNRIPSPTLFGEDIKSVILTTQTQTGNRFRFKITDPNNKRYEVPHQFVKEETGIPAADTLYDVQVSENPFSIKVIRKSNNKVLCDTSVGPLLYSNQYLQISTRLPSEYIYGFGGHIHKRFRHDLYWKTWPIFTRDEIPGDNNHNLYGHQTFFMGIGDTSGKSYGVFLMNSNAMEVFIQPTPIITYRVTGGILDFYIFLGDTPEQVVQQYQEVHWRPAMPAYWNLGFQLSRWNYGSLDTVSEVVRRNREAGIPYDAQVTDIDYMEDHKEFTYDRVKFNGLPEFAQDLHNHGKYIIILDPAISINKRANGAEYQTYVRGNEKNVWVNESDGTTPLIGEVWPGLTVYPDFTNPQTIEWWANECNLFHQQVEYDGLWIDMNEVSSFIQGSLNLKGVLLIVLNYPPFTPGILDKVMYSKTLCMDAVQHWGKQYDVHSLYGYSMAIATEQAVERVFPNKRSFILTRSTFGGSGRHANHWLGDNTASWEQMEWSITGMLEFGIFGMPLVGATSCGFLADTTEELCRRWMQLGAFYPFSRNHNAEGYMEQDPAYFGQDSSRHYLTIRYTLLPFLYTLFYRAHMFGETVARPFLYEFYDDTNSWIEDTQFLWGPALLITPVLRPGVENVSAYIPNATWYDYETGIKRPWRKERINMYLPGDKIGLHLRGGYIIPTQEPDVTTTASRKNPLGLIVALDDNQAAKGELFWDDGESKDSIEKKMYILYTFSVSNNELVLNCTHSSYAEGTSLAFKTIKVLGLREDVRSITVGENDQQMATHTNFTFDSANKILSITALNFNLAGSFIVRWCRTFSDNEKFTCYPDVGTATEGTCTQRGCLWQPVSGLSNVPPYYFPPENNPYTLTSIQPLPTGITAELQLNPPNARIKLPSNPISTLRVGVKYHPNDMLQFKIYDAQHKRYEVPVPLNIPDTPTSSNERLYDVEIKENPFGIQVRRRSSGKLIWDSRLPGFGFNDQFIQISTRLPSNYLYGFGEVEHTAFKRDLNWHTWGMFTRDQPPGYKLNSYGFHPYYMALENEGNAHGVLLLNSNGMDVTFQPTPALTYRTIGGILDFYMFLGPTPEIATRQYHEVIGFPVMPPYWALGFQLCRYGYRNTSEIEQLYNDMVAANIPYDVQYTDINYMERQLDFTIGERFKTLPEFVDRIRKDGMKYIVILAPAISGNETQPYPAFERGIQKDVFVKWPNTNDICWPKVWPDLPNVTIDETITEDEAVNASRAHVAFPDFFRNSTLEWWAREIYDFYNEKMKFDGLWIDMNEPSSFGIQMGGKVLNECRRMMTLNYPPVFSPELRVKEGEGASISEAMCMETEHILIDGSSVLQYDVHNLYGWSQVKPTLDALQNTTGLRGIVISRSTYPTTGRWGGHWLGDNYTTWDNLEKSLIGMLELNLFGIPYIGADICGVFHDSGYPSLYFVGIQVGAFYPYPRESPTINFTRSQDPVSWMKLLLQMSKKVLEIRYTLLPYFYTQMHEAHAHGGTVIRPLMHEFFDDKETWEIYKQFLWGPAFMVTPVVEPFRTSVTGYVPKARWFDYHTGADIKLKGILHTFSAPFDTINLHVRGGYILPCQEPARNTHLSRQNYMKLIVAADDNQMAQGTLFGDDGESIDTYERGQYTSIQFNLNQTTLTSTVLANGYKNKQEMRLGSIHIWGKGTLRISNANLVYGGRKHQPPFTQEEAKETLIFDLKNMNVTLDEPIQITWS
The experiment in a line: α-Glucosidase inhibition assay. The assay is classed as biochemical. To be noted: for IC50: rat intestinal α-glucosidase, sucrose substrate, mean ± SEM, read-out: IC50, α-glucosidase inhibitory activity (converted). The protocol:
The effect of the isolated compounds on the activity of the α-glucosidase enzyme was evaluated by the method of Olaokun et al.. Firstly, a solution of 2.5 mg of compound in 1 mL of 50% dimethyl sulfoxide was made. A compound solution (100 μL) and sucrose (200 μL of a 56 mM solution) in 0.1 M PO4 buffer (pH 7) were incubated at 37 °C for 5 min. Then 200 μL of rat intestinal α-glucosidase solution was added with vigorous shaking before incubation for 20 min. Thereafter, 750 μL of 2 M Tris-HCl buffer (pH 6.9) was added to the mixture. […] The quantity of glucose released was estimated using the glucose oxidase method, with absorbance recorded at 540 nm. […] (1) %Inhibition=100×∆AControl−∆ASample/∆AControl∆AControl=ATest−ABlank∆ASample=ATest−ABlank

For a further assay, the system named is H-4-11-E rat liver cells. Nature of the assay: Glucose utilization in H-4-11-E liver cells. To be noted: 250 µg/mL, 3 h, percentage of untreated control cells ± SEM. The class given is cell-based. The method, then: as §1

Regarding `Oc1ccc(C2Oc3cc(O)cc(O)c3CC2O)cc1` (centres unmarked) [Epiafzelechin, epiafzelechin], in the assay with C2C12 muscle cells, the “Glucose utilization in C2C12 muscle cells” value is 33.35 ± 1.8%. Further, the IC50 in assay [1] is 27.9 µM. In addition, the “Glucose utilization in H-4-11-E liver cells” value in the assay with H-4-11-E rat liver cells is 46.7 ± 1.2%.
With `Oc1cc(O)c2c(c1)O[C@H](c1ccc(O)c(O)c1)[C@H](O)C2` [Epicatechin, epicatechin], the IC50 in assay [1] is 19.7 µM. The “Glucose utilization in H-4-11-E liver cells” value in the assay with H-4-11-E rat liver cells stood at 32.4 ± 1.5%.
Take `C=C(C)[C@@H]1CC[C@]2(C)CC[C@]3(C)[C@H](CC[C@@H]4[C@@]5(C)CC[C@H](O)C(C)(C)[C@@H]5CC[C@]43C)[C@@H]12` [Lupeol, lupeol]: in assay [1], the pIC50 was less than 2.63.
As for `CC[C@H](/C=C/[C@@H](C)[C@H]1CC[C@H]2[C@@H]3CC=C4C[C@@H](O)CC[C@]4(C)[C@H]3CC[C@]12C)C(C)C` [Stigmasterol, stigmasterol], the IC50 in assay [1] is 280 µM.
The same measure, in the same setting: next, `CC(=O)OC1CCC2(C)C(CCC3(C)C2CC=C2C4C(C)C(C)CCC4(C)CCC23C)C1(C)C` (stereo not drawn) [α-Amyrin acetate, α-amyrin acetate]: 716 µM.
